# According to ChEMBL document CHEMBL1201862, “PubChem BioAssay data set” (2004):
# Active and inactive are the calls of the source.
# How the values were obtained:
# [1] = molecular target: Glyceraldehyde-3-phosphate dehydrogenase (Homo sapiens, UniProt P04406)
# [2] = molecular target: Tyrosine-protein phosphatase non-receptor type 12 (Homo sapiens, UniProt Q05209); test: SAR Selectivity Analysis of small molecule inhibitors of PEST using pCAP in a fluorescence assay. [Related pubchem assays (depositor defined):AID1779, AID1784, AID2135]; format: functional
# Chain of Tyrosine-protein phosphatase non-receptor type 12 (Q05209 whole entry): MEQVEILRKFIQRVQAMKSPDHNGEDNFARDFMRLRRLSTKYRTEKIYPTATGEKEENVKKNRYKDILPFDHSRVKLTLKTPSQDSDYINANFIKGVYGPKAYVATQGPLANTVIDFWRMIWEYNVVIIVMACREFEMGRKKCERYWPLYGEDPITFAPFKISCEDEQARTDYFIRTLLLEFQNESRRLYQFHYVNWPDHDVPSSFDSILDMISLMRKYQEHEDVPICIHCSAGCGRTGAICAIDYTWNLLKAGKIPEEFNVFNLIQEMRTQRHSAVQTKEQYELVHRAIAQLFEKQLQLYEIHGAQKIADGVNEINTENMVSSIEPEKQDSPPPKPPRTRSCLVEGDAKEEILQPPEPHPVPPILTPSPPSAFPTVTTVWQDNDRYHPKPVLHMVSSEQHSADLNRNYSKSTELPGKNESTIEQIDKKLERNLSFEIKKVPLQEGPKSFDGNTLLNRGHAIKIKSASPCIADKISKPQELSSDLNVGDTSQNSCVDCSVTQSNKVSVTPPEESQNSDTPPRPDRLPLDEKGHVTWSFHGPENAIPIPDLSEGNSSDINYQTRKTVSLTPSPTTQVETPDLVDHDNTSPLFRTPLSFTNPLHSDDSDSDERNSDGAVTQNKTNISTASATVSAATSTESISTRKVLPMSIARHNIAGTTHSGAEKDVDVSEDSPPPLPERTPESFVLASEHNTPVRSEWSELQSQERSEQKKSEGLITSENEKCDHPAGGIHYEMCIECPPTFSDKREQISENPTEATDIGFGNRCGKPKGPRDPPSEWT
# [3] = molecular target: T1, Tyrosine-protein phosphatase non-receptor type 22 (Homo sapiens, UniProt Q9Y2R2); test: SAR LYP1 Fluorescent Assay using OMFP substrate for In Vitro dose response studies - Set 3. [Related pubchem assays (depositor defined):AID1779, AID1784, AID2140, AID2686]; format: functional
# T1 sequence (Q9Y2R2 whole entry): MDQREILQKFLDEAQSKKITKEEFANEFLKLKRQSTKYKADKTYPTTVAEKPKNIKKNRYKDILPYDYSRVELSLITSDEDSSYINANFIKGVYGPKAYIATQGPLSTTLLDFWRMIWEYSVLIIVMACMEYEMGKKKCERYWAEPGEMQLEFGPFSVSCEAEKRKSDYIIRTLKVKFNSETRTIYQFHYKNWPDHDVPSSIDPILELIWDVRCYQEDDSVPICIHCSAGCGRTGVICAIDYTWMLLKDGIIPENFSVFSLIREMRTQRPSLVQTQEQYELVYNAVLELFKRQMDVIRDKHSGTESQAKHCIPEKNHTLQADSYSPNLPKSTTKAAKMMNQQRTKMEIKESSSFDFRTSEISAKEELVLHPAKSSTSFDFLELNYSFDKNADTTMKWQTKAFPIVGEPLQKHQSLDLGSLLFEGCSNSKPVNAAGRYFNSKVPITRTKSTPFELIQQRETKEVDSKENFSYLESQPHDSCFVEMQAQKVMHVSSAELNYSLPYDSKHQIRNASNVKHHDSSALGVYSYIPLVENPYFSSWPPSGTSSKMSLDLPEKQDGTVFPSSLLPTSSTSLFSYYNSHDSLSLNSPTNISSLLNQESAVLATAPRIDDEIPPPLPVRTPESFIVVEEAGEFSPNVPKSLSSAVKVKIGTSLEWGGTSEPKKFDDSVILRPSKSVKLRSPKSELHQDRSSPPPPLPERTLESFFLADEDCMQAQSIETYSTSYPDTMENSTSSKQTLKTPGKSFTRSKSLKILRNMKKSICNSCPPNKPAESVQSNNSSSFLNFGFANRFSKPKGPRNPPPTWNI
# [4] = molecular target: T1, Tyrosine-protein phosphatase non-receptor type 22; test: LYP (PTPN22) phosphatase inhibitor potency, SAR follow-up, biochemical, pCAP fluorogenic substrate, fluorescence, set 3 (AID 449727); format: functional
# [5] = molecular target: Bifunctional protein GlmU (Mycobacterium tuberculosis, UniProt P9WMN3); test: Inhibitors of Mycobacterial Glucosamine-1-phosphate acetyl transferase (GlmU). Secondary screen.; parameters: species or system Mycobacterium tuberculosis H37Rv
# Chain of Bifunctional protein GlmU (P9WMN3 whole entry): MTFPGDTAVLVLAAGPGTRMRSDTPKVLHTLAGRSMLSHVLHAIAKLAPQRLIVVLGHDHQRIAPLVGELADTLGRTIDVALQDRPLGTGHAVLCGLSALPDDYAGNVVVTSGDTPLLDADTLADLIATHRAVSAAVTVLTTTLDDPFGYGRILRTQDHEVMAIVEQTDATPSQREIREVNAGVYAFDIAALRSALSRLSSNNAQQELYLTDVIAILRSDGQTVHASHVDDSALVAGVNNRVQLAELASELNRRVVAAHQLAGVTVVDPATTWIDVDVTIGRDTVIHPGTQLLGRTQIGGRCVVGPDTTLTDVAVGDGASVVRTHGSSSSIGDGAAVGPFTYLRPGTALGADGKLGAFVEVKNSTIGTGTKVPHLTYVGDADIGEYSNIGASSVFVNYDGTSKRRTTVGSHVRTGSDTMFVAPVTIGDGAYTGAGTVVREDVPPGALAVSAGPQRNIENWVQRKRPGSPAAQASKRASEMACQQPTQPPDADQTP
# ORF 73 = ORF 73 (Human herpesvirus 8, UniProt O40947); test: inhibitors of C-LANA binding to LBS DNA, dose response, biochemical, fluorescence polarization, cherry-picked samples (AID 504725); parameters: species or system Human gammaherpesvirus 8;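 further: fluorescence polarization of a labeled DNA duplex reporting LANA DNA binding; potency is for inhibitors that block LANA binding to the DNA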
# Large T antigen = Large T antigen (Simian virus 40, UniProt P03070); format: functional, Betapolyomavirus macacae;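 further: Confirmatory-stage PubChem screen for compounds that inhibit SV40 T antigen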
# Chain of Large T antigen (P03070 whole entry): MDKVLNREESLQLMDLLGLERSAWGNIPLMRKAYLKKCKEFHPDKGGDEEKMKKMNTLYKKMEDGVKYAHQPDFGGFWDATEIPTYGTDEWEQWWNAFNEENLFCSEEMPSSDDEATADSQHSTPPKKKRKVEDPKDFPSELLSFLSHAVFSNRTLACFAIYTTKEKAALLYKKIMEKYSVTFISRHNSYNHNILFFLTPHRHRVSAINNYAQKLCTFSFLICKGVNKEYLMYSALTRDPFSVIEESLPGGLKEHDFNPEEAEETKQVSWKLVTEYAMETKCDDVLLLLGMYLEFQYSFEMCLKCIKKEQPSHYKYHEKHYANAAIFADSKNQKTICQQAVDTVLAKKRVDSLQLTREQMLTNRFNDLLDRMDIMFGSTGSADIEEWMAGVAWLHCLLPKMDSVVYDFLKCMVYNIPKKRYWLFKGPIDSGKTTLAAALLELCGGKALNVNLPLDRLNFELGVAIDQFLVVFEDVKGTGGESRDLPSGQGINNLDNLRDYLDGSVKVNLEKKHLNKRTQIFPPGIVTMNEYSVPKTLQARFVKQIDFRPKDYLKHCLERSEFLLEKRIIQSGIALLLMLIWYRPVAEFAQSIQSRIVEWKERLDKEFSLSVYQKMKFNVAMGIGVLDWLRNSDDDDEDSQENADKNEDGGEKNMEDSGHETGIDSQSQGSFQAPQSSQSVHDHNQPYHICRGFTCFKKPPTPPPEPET
# [6] = molecular target: T2, Alkaline phosphatase, tissue-nonspecific isozyme (Homo sapiens, UniProt P05186); test: TNAP enzyme activators, dose response, selectivity assay for mouse IAP activator project, biochemical, TNAP isozyme, mouse IAP uHTS hits (AID 488880); format: functional
# T2 sequence (P05186 whole entry): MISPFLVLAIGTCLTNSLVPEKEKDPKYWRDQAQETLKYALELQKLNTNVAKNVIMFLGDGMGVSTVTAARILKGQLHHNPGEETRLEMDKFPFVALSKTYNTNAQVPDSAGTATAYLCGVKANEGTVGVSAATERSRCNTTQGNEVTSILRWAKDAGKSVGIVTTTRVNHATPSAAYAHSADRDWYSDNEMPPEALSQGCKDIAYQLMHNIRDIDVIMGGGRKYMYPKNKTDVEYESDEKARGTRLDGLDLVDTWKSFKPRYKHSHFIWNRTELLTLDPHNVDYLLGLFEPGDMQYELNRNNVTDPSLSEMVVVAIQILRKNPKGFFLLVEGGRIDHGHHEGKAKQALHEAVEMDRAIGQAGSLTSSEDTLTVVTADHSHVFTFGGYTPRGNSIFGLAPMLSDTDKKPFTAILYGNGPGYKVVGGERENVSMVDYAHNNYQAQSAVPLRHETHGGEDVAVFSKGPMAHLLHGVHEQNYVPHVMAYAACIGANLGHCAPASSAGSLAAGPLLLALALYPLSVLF
# Cysteine protease ATG4B = molecular target: T3, Cysteine protease ATG4B (Homo sapiens, UniProt Q9Y4P1); format: functional;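 further: Fluorescence-based dose-response confirmation assay measuring inhibition of ATG4B activity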
# T3 sequence (Q9Y4P1 whole entry): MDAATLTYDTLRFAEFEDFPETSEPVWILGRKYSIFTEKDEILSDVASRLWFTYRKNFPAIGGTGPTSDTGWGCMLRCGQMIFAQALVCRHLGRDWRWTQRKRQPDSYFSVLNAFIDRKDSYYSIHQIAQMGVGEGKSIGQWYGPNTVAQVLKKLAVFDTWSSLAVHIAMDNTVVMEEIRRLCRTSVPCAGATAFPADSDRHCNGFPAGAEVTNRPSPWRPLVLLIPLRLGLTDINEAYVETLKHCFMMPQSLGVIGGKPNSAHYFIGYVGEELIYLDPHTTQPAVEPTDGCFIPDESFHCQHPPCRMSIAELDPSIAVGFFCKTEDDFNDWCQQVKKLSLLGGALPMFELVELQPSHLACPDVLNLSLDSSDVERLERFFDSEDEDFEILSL
# [7] = molecular target: T4, Calpain-2 catalytic subunit (Sus scrofa, UniProt P43367); test: pig calpain II inhibitor potency, dose response, biochemical, fluorogenic peptide substrate (AID 1420); format: functional
# T4 sequence (P43367 whole entry): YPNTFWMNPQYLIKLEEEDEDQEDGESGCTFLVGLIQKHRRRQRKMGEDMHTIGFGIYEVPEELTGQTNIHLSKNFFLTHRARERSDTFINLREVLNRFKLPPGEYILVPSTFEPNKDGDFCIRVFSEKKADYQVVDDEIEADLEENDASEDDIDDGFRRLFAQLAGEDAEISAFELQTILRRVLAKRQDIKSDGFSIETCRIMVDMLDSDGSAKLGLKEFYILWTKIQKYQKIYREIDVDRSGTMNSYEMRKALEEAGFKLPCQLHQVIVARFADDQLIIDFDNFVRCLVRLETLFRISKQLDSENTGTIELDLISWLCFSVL
# [8] = molecular target: Induced myeloid leukemia cell differentiation protein Mcl-1 (Homo sapiens, UniProt Q07820); format: functional
# Chain of Induced myeloid leukemia cell differentiation protein Mcl-1 (Q07820 whole entry): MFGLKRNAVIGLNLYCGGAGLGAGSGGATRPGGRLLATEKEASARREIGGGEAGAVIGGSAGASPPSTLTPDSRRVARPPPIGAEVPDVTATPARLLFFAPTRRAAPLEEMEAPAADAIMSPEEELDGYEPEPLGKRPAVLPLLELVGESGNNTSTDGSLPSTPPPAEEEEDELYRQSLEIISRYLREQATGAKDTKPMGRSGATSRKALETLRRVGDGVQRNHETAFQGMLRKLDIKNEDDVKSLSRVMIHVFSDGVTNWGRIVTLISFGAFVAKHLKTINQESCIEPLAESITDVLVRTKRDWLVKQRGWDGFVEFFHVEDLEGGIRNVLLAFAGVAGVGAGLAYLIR
# Phospholipase A2 = Phospholipase A2 (Homo sapiens, UniProt P04054); format: functional;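 further: confirmatory dose-response counterscreen on phospholipase A2, testing hits that came from an ultra-high-throughput screen for ATG4B inhibitors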
# Chain of Phospholipase A2 (P04054 whole entry): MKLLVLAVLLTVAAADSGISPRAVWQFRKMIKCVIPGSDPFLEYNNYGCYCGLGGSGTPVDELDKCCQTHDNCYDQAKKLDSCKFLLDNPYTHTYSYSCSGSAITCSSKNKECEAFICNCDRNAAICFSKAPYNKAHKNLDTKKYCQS
# [9] = molecular target: Guanyl-specific ribonuclease T1 (Aspergillus oryzae (strain ATCC 42149 / RIB 40), UniProt P00651); test: RNase T1 inhibitors, dose response, counter-screen for TPT1 inhibitor project, biochemical, fluorescence polarization, 1536-well (AID 2167)
# Chain of Guanyl-specific ribonuclease T1 (P00651 whole entry): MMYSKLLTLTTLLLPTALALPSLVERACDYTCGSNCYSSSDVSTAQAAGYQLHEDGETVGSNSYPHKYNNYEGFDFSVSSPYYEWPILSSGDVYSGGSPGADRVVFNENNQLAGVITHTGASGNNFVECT
# [10] = molecular target: Intestinal-type alkaline phosphatase (Homo sapiens, UniProt P09923); test: activation of human intestinal alkaline phosphatase – biochemical, dose response (AID 488873); format: functional
# Chain of Intestinal-type alkaline phosphatase (Homo sapiens, UniProt P09923) (P09923 whole entry): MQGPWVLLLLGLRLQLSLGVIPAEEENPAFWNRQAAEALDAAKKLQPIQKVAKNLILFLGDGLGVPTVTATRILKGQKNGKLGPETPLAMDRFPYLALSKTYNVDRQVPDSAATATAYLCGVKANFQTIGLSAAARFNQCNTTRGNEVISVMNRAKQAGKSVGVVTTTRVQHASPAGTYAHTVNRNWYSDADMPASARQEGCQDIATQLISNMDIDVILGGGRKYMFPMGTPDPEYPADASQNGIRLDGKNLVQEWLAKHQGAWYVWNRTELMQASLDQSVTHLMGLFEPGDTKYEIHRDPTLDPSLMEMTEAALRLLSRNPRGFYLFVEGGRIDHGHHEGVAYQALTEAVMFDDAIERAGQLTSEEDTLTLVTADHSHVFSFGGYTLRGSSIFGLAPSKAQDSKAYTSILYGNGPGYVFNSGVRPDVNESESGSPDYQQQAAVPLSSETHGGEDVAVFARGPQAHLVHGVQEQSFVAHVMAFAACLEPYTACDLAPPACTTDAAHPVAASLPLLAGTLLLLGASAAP
# [11] = molecular target: Likely tRNA 2'-phosphotransferase (Candida albicans (strain SC5314 / ATCC MYA-2876) (Yeast), UniProt Q5A7N4); test: TPT1 tRNA phosphotransferase inhibitors, dose response, biochemical, fluorescence polarization (AID 2160)
# Chain of Likely tRNA 2'-phosphotransferase (Q5A7N4 whole entry): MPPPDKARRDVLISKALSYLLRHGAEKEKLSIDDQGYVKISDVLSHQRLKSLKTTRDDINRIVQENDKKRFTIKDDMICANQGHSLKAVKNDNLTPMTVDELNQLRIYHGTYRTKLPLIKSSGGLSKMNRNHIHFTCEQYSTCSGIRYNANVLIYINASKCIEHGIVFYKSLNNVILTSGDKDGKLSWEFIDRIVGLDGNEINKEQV
# Aminopeptidase N = molecular target: T5, Aminopeptidase N (Plasmodium falciparum FcB1/Columbia, UniProt O96935); test: P. falciparum M1AAP inhibitors, biochemical, fluorogenic H-Leu-NHMec substrate, 1536-well (AID 1445); parameters: species or system Plasmodium falciparum 3D7, 3D7
# T5 sequence (O96935 whole entry): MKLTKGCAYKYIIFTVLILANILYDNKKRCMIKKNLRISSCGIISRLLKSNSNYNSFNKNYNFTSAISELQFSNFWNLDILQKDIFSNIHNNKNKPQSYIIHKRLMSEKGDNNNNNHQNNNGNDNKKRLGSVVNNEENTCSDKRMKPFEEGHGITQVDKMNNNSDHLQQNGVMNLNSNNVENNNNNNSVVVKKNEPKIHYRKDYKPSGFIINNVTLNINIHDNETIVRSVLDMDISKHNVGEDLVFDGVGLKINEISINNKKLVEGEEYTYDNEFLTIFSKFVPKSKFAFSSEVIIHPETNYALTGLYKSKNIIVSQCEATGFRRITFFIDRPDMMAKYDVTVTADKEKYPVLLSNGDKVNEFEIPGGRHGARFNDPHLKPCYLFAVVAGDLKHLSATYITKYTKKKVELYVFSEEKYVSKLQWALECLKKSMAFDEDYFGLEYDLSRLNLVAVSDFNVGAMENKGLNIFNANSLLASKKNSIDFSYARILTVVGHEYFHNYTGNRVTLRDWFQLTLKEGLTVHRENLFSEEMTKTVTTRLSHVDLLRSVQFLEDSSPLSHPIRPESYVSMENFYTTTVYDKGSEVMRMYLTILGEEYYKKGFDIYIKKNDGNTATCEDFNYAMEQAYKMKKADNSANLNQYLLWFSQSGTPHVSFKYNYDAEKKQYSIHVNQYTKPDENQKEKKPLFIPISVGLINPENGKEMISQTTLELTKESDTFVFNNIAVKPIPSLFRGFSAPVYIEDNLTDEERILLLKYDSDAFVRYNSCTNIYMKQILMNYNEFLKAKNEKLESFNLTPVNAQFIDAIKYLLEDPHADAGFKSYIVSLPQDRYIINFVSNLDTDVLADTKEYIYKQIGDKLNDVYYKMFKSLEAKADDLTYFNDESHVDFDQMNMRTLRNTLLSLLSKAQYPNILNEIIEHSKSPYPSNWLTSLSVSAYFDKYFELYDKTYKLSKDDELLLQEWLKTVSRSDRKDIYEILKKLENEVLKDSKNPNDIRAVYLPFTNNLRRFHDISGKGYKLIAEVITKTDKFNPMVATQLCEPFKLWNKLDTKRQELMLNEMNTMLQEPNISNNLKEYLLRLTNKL
# [12] = molecular target: Intestinal-type alkaline phosphatase (Mus musculus, UniProt P24822); test: mouse intestinal alkaline phosphatase activators, dose response, biochemical, luminescence, uHTS hits (AID 488783); format: functional
# Chain of Intestinal-type alkaline phosphatase (Mus musculus, UniProt P24822) (P24822 whole entry): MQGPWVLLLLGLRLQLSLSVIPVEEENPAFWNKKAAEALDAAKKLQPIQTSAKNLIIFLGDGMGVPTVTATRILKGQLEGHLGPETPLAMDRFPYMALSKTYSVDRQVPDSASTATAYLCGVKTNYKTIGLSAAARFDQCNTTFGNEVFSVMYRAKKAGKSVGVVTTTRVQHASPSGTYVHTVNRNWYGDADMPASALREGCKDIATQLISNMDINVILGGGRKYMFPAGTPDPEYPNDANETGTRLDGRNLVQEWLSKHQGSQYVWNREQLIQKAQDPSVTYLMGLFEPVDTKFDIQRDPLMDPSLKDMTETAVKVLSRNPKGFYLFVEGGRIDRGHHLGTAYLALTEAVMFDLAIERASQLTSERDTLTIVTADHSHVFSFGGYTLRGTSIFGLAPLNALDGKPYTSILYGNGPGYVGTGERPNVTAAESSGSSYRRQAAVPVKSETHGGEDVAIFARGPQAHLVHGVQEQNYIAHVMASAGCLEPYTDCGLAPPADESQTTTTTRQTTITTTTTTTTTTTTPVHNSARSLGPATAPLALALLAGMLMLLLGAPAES
# HeLa = test: HeLa cell cytotoxicity, dose response, cytotoxicity control, 24 h, cherry-picked samples (AID 504726); format: functional, cell-based; conditions: Homo sapiens;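 further: potency for cytotoxicity as loss of luminescence signal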
# Trypsin = Trypsin (Sus scrofa, UniProt P00761); test: porcine trypsin inhibitors, dose response, selectivity assay for Rce1 protease inhibitor project, biochemical, quenched peptide fluorescence, cherry-pick (AID 488789)
# Chain of Trypsin (P00761 whole entry): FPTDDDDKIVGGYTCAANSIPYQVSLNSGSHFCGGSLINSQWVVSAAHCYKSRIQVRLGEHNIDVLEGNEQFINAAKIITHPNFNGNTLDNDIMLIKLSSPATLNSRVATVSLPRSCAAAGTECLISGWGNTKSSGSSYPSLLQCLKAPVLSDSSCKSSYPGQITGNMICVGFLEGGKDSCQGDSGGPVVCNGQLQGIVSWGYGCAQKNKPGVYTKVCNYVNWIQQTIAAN
# [13] = molecular target: Phosphoethanolamine/phosphocholine phosphatase (Homo sapiens, UniProt Q8TCT1); test: SAR assay for compounds that inhibit PHOSPHO1. [Related pubchem assays (depositor defined):AID1545, AID1565, AID1574]
# Chain of Phosphoethanolamine/phosphocholine phosphatase (Q8TCT1 whole entry): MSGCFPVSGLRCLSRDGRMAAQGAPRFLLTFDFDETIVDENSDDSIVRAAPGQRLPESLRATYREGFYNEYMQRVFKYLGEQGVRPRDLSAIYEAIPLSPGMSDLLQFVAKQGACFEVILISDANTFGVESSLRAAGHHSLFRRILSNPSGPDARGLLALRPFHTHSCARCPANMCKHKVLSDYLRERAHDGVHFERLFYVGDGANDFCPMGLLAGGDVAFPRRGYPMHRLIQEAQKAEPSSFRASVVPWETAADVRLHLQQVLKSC
# [14] = molecular target: T6, Mannose-6-phosphate isomerase (Homo sapiens, UniProt P34949); test: PMI enzyme inhibitors, confirmation, biochemical, fluorescence intensity (AID 1535)
# T6 sequence (P34949 whole entry): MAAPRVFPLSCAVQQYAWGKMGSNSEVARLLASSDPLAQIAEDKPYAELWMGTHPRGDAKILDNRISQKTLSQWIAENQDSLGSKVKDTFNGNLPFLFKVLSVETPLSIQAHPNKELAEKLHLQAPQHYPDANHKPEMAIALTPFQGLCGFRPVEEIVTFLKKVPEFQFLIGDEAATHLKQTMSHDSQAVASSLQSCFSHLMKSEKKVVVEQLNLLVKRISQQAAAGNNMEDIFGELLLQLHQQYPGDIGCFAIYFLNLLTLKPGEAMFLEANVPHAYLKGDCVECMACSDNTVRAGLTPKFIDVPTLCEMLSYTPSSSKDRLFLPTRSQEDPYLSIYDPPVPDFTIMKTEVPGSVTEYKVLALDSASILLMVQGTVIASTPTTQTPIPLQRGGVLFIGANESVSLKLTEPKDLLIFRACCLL
# Phosphomannomutase 2 = Phosphomannomutase 2 (Homo sapiens, UniProt O15305); test: Counter screen SAR assay for PMM2 inhibitors via a fluorescence intensity assay. [Related pubchem assays (depositor defined):AID1545, AID1574]
# Hexokinase = molecular target: T7, Hexokinase (Trypanosoma brucei, UniProt Q38C41); test: Confirmation assay for inhibitors of Trypanosoma brucei hexokinase 1-Analogue-first series. [Related pubchem assays (depositor defined):AID1430, AID1632, AID2516, AID2560, AID2579, AID2600, AID449725, AID492951]; format: functional
# T7 sequence (Q38C41 whole entry): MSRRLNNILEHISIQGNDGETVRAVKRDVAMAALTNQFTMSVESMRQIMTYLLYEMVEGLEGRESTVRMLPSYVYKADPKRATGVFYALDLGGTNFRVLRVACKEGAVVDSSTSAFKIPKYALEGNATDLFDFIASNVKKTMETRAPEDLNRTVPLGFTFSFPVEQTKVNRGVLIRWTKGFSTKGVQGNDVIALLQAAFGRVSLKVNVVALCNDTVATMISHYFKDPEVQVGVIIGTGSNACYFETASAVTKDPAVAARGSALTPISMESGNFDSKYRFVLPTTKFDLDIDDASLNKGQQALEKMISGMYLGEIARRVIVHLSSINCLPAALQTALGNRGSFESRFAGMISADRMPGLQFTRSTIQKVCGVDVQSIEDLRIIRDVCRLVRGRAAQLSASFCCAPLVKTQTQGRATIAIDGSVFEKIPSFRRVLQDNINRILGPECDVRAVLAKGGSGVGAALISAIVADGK
# Chain of Glyceraldehyde-3-phosphate dehydrogenase (P04406 whole entry): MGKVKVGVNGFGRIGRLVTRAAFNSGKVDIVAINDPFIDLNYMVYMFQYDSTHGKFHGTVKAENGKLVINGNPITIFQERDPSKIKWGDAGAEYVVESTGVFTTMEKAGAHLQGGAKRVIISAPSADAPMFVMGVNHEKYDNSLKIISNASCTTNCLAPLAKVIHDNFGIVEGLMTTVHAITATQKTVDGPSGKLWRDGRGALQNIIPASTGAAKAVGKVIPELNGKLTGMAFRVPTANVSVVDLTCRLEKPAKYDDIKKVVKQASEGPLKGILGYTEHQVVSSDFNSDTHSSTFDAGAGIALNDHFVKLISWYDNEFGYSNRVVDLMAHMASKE
compound,measurement,setting,value
O=C(O)c1ccc(-c2ccc(/C=C3\SC(=S)N(c4ccc([N+](=O)[O-])cc4)C3=O)o2)cc1,IC50,[1],> 100 µM (not active)
same,IC50,[2],0.216 µM (active)
same,IC50,[3],0.821 µM (active)
same,IC50,[4],0.602 µM (active)
O=C1/C(=C/C=C/c2ccco2)SC(=S)N1NS(=O)(=O)c1ccccc1,IC50,[5],49.6 µM (active)
same,AC50,ORF 73,177 µM (active)
same,IC50,Large T antigen,25.4 µM (active)
same,EC50,[6],> 100 µM (inactive)
same,IC50,Cysteine protease ATG4B,7.13 µM (active)
same,IC50,[7],8.28 µM (not active)
same,IC50,[8],3.1 µM (active)
same,IC50,Phospholipase A2,13 µM (active)
same,IC50,[9],18.5 µM (not active)
same,EC50,[10],> 100 µM (inactive)
same,IC50,[11],20.8 µM (not active)
same,IC50,Aminopeptidase N,22.6 µM (active)
same,EC50,[12],3.13 µM (active)
same,AC50,HeLa,> 350 µM (inactive)
CCn1cc(C(=O)NCCO)c(=O)c2cc(F)c(N3CCN(C)CC3)cc21,AC50,Trypsin,39.2 µM (active)
O=c1c2ccc([N+](=O)[O-])cc2sn1-c1ccccc1,IC50,[13],4.23 µM (inactive)
same,IC50,[14],> 50 µM (inactive)
same,IC50,Phosphomannomutase 2,> 100 µM (inactive)
same,IC50,Hexokinase,11.6 µM (active)
